Results taken from the NIST ThermoML archive (doi:10.1007/s10765-012-1373-z).

Details: Liquid; for mass density: Buoyancy - hydrostatic balance; for viscosity: Falling or rolling sphere viscometry

CCCCCCC [heptane]
Details | mass density [kg/m3] | viscosity [mPa·s]
298.15 K, 98 kPa | 679.99 | 0.396
298.15 K, 24510 kPa | 702.85 | 0.4923
298.15 K, 49030 kPa | 718.61 | 0.602
298.15 K, 98060 kPa | 741.52 | 0.8489
298.15 K, 147100 kPa | 760.47 | 1.137
298.15 K, 196130 kPa | 780.16 | 1.493
298.15 K, 245160 kPa | 792.15 | 1.91
303.15 K, 98 kPa | 674.98 | 0.373
303.15 K, 24510 kPa | 697.11 | 0.4737
303.15 K, 49030 kPa | 713.79 | 0.5696
303.15 K, 98060 kPa | 739.05 | 0.8037
303.15 K, 147100 kPa | 759.49 | 1.071
303.15 K, 196130 kPa | 777.85 | 1.389
303.15 K, 245160 kPa | 789.56 | 1.744
323.11 K, 49030 kPa | 701.18 | 0.4816
323.13 K, 24510 kPa | 680.94 | 0.3966
323.2 K, 98060 kPa | 731.08 | 0.6613
323.2 K, 147100 kPa | 749.97 | 0.87
323.21 K, 196130 kPa | 768.38 | 1.112
323.25 K, 98 kPa | 659.16 | 0.3107
323.25 K, 245160 kPa | 783.33 | 1.378
362.8 K, 147100 kPa | 731.67 | 0.6488
362.83 K, 98060 kPa | 709.5 | 0.4956
362.85 K, 49030 kPa | 675.9 | 0.3626
362.87 K, 196130 kPa | 752.22 | 0.8089
362.92 K, 98 kPa | 622.63 | 0.2146
362.98 K, 245160 kPa | 769.76 | 0.9926
363.07 K, 24510 kPa | 654.31 | 0.2937
391.93 K, 147100 kPa | 717.73 | 0.531
392 K, 196130 kPa | 739.92 | 0.6621
392 K, 245160 kPa | 759.27 | 0.8047
392.04 K, 98060 kPa | 696.22 | 0.4119
393.01 K, 24510 kPa | 634.69 | 0.2366
393.14 K, 49030 kPa | 657.93 | 0.2965
422.17 K, 196130 kPa | 729 | 0.5591
422.24 K, 98060 kPa | 679.62 | 0.3479
422.26 K, 147100 kPa | 704.75 | 0.4464
422.58 K, 24510 kPa | 611.28 | 0.1951
422.6 K, 49030 kPa | 638.89 | 0.2476
423.04 K, 245160 kPa | 748.46 | 0.6699
452.91 K, 245160 kPa | 734.45 | 0.577
453.04 K, 196130 kPa | 716.18 | 0.4784
453.1 K, 147100 kPa | 689.71 | 0.3883
453.16 K, 98060 kPa | 666.38 | 0.3007
453.24 K, 49030 kPa | 621.56 | 0.2134
453.4 K, 24510 kPa | 589.05 | 0.1668
470.1 K, 49030 kPa | 611.78 | 0.2021
470.19 K, 24510 kPa | 574.55 | 0.1568
470.19 K, 98060 kPa | 658.7 | 0.2858
470.19 K, 147100 kPa | 685.13 | 0.3672
470.57 K, 196130 kPa | 709.79 | 0.4549
470.61 K, 245160 kPa | 729.17 | 0.5475
